In patent publication US5057503A, “Derivativized polysaccharides with biologic activity, method of their isolation, and uses therefor” (The Brigham and Women's Hospital, priority 1989, dated 1991):

System: human monocyte β-glucan receptors
Assay: Inhibition of adherent monocyte phagocytosis of zymosan particles after pretreatment with isolated carbohydrates
Assay type: cell-based
Conditions: for phagocytosis-inhibiting activity after derivatization with 2-aminopyridine (in words): 100 ng/ml tested; for activity after derivatization with 2-aminopyridine (in words): as much as 800 ng/ml in the functional monocyte assays; for phagocytosis-inhibiting activity / interaction with human monocyte β-glucan receptors (in words): concentration not given

Structure (SMILES) | phagocytosis-inhibiting activity after derivatization with 2-aminopyridine (in words) | activity after derivatization with 2-aminopyridine (in words) | phagocytosis-inhibiting activity / interaction with human monocyte β-glucan receptors (in words) | effect on monocyte ingestion of zymosan (in words) (500 ng/ml to 100 μg/ml, without derivatization) | proportion of monocytes ingesting zymosan after pretreatment (100 μg/ml, without derivatization, without pretreatment 67% (synthetic β-heptaglucoside) and 50% (maltoheptose)) [%]
OC[C@H]1O[C@H](O[C@H]2[C@H](O)[C@@H](O)[C@@H](O[C@H]3[C@H](O)[C@@H](O)[C@@H](O[C@H]4[C@H](O)[C@@H](O)[C@@H](O[C@H]5[C@H](O)[C@@H](O)[C@@H](O[C@H]6[C@H](O)[C@@H](O)[C@@H](O[C@H]7[C@H](O)[C@@H](O)C(Nc8ccccn8)O[C@@H]7CO)O[C@@H]6CO)O[C@@H]5CO)O[C@@H]4CO)O[C@@H]3CO)O[C@@H]2CO)[C@H](O)[C@@H](O)[C@@H]1O (some centres unmarked) [Derivatized maltoheptose] | not acquired | remained inactive | remained inactive | – | –
OC[C@H]1O[C@@H](OC[C@H]2O[C@@H](OC[C@H]3O[C@@H](OC[C@H]4O[C@@H](OC[C@H]5OC(Nc6ccccn6)[C@H](O)[C@@H](O)[C@@H]5O)[C@H](O)[C@@H](O[C@@H]5O[C@H](CO)[C@@H](O)[C@H](O)[C@H]5O)[C@@H]4O)[C@H](O)[C@@H](O)[C@@H]3O)[C@H](O)[C@@H](O[C@@H]3O[C@H](CO)[C@@H](O)[C@H](O)[C@H]3O)[C@@H]2O)[C@H](O)[C@@H](O)[C@@H]1O (stereo partly drawn) [Derivatized synthetic β-heptaglucoside] | not acquired | remained inactive | remained inactive | – | –
OC[C@H]1O[C@H](O[C@H]2[C@H](O)[C@@H](O)[C@@H](O[C@H]3[C@H](O)[C@@H](O)[C@@H](O[C@H]4[C@H](O)[C@@H](O)[C@@H](O[C@H]5[C@H](O)[C@@H](O)[C@@H](O[C@H]6[C@H](O)[C@@H](O)[C@@H](O[C@H]7[C@H](O)[C@@H](O)C(O)O[C@@H]7CO)O[C@@H]6CO)O[C@@H]5CO)O[C@@H]4CO)O[C@@H]3CO)O[C@@H]2CO)[C@H](O)[C@@H](O)[C@@H]1O (some centres unmarked) [Maltoheptose] | – | – | – | no effect | 52
